Measured values: patent publication US6350731B1, “Platelet-derived growth factor analogues” (Trigen Limited, priority 1993, dated 2002)
Where no end group is shown, it is not given here. SMCC = N-(4-carboxy-cyclohexyl-methyl)-maleimide cross-linker

Columns and labels:
Swiss 3T3.A31 = test: [3H]-thymidine uptake assay on fibroblast cells in culture; type: cell-based, murine; details: for stimulatory (mitogenic) effect, thymidine uptake: FIG. 1
Description: 2) Effect of PDGF Peptides on Fibroblast Cells in Culture The stimulatory or inhibitory effect of the peptides on the murine fibroblast cell line Swiss 3T3.A31 were investigated using the [^3H]-thymidine uptake assay as described by Raines & Ross. The peptides were tested for their ability to stimulate thymidine uptake in the cells in culture.

large bed sores = details: locally applied, reference [31]; cited from earlier work
[1] = tested on: smooth muscle cells of injured arteries; details: administration of PDGF, rat, reference [19]; cited from earlier work
[2] = tested on: corresponding immunising peptide; test: ELISA titre of polyclonal antisera; type: binding; details: rabbits immunised with peptide linked to thyroglobulin, FIGS. 3A, 3B
Description: (§1) Rabbits and mice were immunised with the peptides either in the free form mixed with Freund's adjuvant or conjugated to a carrier protein (Thyroglobulin or keyhole haemocyanin). Antisera were tested for antibody production to the peptides and PDGF using ELISA, dot blot assays and SDS-PAGE followed by Western blotting.

3T3 cells = test: 125I-PDGF-BB binding inhibition assay, 3T3 cells; set-up: species or system murine; details: at the concentrations tested, FIG. 2A
Description: (§2) 3) Effect of PDGF Peptides on ^125I-PDGF-BB Binding to 3T3 Cells and Human Smooth Muscle Cells p PDGF-BB binding inhibition assay was performed as described by Engstrom et al. A murine fibroblast cell line 3T3.A31 and human aortic smooth muscle cells were used.

PDGF = target: T1, PDGF (Homo sapiens, UniProt P01127); test: Western blot vs native PDGF; type: binding; details: polyclonal antisera
T1 construct: both chains undergo proteolytic cleavage at the N-termini during maturation; The B chain is also processed at the C-terminal end
Description: as §1

PDGF β-receptors = PDGF β-receptors (Homo sapiens, UniProt P09619); details: reference [6]; cited from earlier work
PDGF receptor = details: cited from earlier work
[3] = tested on: human smooth muscle cells; test: 125I-PDGF-BB binding inhibition assay, human smooth muscle cells (peptides); details: FIG. 2B
Description: as §2

T1 sequence (P01127 82-190 limits assumed): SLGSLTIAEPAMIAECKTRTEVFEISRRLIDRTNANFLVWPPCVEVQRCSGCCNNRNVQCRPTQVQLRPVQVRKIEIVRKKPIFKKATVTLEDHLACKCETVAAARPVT
Chain of PDGF β-receptors (P09619 33-1106): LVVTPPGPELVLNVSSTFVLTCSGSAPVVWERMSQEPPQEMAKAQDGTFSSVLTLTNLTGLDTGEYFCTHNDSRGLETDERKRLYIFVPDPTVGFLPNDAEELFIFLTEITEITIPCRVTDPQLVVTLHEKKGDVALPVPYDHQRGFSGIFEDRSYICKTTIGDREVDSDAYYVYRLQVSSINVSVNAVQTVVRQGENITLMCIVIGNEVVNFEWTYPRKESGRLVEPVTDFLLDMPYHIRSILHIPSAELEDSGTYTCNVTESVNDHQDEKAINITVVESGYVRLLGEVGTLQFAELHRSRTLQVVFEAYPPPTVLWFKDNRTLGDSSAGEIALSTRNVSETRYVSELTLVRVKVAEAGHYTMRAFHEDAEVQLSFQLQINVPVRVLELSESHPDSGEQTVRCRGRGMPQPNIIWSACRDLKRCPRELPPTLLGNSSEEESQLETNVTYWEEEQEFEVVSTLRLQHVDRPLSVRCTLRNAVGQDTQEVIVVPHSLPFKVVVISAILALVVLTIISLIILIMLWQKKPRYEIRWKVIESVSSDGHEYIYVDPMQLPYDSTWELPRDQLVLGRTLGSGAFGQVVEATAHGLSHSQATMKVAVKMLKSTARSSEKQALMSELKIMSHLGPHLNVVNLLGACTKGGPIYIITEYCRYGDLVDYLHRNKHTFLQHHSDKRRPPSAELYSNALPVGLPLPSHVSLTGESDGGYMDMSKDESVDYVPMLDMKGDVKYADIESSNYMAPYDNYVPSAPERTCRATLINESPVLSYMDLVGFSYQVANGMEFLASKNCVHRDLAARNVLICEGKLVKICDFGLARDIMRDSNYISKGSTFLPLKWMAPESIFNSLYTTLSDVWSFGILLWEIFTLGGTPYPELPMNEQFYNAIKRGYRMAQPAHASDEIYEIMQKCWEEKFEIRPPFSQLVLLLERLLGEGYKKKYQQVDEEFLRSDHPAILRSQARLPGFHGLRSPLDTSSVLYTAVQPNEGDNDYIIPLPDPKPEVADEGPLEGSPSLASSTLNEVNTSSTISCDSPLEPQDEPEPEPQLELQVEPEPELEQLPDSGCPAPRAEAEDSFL

Ac-^25I-S-R-R-L-I-D-R-T-N-A-N-F-L^38 (Ac-ISRRLIDRTNANFL) [GP2]
stimulatory (mitogenic) effect, thymidine uptake (Swiss 3T3.A31): low stimulatory effect

PDGF: 28-31 KD dimeric, highly basic glycoprotein, mitogen for connective tissue cells
healing of large bed sores (large bed sores): stimulates the healing of large bed sores
SMC migration from the media to the intima [1]: 20 fold
SMC proliferation in the media [1]: 2-3 fold

AC-^73R-K-I-E-I-V-R-K-K^81-C (Ac-RKIEIVRKKC) [GP8]
antibodies to the corresponding immunising peptide by ELISA [2]: high titre antibodies
stimulatory (mitogenic) effect, thymidine uptake (Swiss 3T3.A31): not as stimulatory as GP4
inhibition of binding of radiolabelled PDGF-BB to 3T3 cells (3T3 cells): modest inhibition

^73R-K-I-E-I-V-R-K-K-P-I-F-K-K-A-T-V^89 (RKIEIVRKKPIFKKATV) [GP21a]
antibodies produced by the peptide reacted with native PDGF (Western immunoblot) (PDGF): reacted with the native PDGF

ANFLVW—EIVRKKP [literature peptide corresponding to PDGF-B chain residues 35-40 and 78-83]
antagonist for PDGF (PDGF β-receptors): effective as an antagonist for PDGF

polylysin
inhibition of PDGF binding to its receptor (PDGF receptor): inhibit PDGF binding to its receptor

Ac-^25I-S-R-R-L-I-D-R-T-N-A-N-F-L^38-C (Ac-ISRRLIDRTNANFLC) [GP4]
antibodies to the corresponding immunising peptide by ELISA [2]: high titre antibodies
stimulatory (mitogenic) effect, thymidine uptake (Swiss 3T3.A31): highest stimulatory effect
mitogenic effect upon reduction and alkylation of the C-terminal end cysteine residue (Swiss 3T3.A31; reduced and alkylated peptide): almost completely abolished
antibodies produced by the peptide reacted with native PDGF (Western immunoblot) (PDGF): reacted with the native PDGF
inhibition of binding of radiolabelled PDGF-BB to 3T3 cells (3T3 cells): modest inhibition

Ac-^25I-S-R-R-L-I-D-R-T-N-A-N-F-L^38-(G-G-G-G-G-G)-^73R-K-I-E-I-V-R-K-K^81-C [GP14]
inhibition of labelled PDGF binding to human smooth muscle cells [3]: potent inhibitors

protamine sulphate
inhibition of PDGF binding to its receptor (PDGF receptor): inhibit PDGF binding to its receptor

Ac-^25I-S-R-R-L-I-D-R-T-N-A-N-F-L-V-W-P-P-C^43-(SMCC)-^73R-K-I-E-I-V-R-K-K^81-C (Ac-ISRRLIDRTNANFLVWPPC(SMCC)RKIEIVRKKC; also: SMCC joins Cys43 (pos 19) to Arg73 (pos 20) in place of a peptide bond) [GP20]
inhibition of labelled PDGF binding to human smooth muscle cells [3]: potent inhibitors
